Data on 21 molecules can be found in patent publication US20230117470A1, “SUBSTITUTED PYRAZOLE COMPOUNDS AS TOLL RECEPTOR INHIBITORS” (BRISTOL-MYERS SQUIBB COMPANY, priority 2019, published 2023).

Usually IC50 stands for the midpoint of a concentration-inhibition curve. Read a high IC50 as a need for much substance.

What all share (assay type): cell-based
The target of test [1] is T1, human TLR9 (Homo sapiens, UniProt Q9NR96).
T1 construct: host or cells: HEK-Blue cells
T1 sequence (Q9NR96 26-1032): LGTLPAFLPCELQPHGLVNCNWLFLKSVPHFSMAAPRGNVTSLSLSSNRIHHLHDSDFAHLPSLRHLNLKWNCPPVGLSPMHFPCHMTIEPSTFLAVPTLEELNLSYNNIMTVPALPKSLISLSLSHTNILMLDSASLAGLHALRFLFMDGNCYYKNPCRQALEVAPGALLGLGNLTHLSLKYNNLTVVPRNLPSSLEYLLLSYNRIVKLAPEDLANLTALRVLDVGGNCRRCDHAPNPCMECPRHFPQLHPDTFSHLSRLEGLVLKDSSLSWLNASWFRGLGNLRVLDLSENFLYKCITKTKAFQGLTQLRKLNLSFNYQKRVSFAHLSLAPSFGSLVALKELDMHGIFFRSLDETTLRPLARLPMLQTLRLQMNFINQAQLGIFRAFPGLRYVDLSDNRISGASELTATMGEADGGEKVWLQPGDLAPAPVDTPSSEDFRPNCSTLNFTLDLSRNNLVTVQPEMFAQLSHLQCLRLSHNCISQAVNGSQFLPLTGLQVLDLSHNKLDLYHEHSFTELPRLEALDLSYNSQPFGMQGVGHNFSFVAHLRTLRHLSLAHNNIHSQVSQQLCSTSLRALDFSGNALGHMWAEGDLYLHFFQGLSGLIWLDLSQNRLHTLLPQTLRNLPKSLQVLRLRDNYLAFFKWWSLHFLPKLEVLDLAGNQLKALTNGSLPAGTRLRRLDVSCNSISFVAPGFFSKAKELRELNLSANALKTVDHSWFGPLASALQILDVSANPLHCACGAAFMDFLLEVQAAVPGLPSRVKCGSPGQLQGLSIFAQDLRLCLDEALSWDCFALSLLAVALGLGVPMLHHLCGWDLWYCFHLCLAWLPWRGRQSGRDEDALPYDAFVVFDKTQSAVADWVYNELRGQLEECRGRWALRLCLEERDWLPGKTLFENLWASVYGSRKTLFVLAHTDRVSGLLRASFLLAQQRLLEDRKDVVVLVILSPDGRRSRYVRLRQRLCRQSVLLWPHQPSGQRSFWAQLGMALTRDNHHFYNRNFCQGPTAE
Nature of the test: TLR9 inhibition reporter assay (HEK-Blue cells, SEAP reporter, ODN2006 stimulation). Conditions: HEK-Blue cells overexpressing human TLR9, SEAP reporter, ODN2006 5 nM. A digest of the protocol:
(§1)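 Ligand levels differed by receptor: TLR7 got gardiquimod at 7.5 μM, TLR8 got R848 at 15.9 μM, and TLR9 got ODN2006 at 5 nM, each added after a 30-min room-temperature compound exposure. Incubation lasted 22 h at 37° C before colorimetric SEAP detection.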
(In general: Reporter assays use an easily measured gene product as a stand-in for the process of interest.)

The target of test [2] is T2, human TLR7 (Homo sapiens, UniProt Q9NYK1).
T2 construct: host or cells: HEK-Blue cells
T2 sequence (Q9NYK1 27-1049): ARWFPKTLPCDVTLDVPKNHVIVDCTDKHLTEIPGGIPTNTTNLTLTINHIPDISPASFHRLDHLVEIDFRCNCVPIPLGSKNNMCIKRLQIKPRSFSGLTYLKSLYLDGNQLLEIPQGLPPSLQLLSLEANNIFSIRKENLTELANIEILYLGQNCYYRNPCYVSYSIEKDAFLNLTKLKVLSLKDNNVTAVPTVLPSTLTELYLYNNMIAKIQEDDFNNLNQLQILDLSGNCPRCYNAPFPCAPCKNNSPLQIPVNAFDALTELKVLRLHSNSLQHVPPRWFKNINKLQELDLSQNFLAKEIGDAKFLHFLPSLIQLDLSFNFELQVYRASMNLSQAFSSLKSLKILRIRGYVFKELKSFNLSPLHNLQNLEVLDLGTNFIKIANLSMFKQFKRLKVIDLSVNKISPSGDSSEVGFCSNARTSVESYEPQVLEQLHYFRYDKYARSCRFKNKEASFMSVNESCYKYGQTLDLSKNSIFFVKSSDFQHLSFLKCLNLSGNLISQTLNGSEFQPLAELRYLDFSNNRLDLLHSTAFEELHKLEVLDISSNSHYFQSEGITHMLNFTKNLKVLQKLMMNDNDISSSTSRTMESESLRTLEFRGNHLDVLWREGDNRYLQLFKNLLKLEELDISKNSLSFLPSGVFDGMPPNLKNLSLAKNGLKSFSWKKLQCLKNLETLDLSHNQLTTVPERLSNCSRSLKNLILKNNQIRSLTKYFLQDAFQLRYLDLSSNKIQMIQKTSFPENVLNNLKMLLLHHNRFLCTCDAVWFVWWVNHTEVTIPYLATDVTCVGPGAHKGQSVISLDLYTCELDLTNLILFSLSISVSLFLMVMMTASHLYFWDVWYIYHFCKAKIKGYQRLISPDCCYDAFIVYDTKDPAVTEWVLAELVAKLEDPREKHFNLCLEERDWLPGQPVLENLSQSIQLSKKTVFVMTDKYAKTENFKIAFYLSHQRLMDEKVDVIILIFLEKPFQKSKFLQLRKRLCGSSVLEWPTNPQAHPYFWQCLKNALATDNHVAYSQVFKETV
Nature of the test: TLR7 inhibition reporter assay (HEK-Blue cells, SEAP reporter, gardiquimod stimulation). As to conditions: HEK-Blue cells overexpressing human TLR7, SEAP reporter, gardiquimod 7.5 μM. A digest of the protocol: as §1

The target in test [3] is T3, human TLR8 (Homo sapiens, UniProt Q9NR97).
T3 construct: host or cells: HEK-Blue cells
T3 sequence (Q9NR97 27-1041): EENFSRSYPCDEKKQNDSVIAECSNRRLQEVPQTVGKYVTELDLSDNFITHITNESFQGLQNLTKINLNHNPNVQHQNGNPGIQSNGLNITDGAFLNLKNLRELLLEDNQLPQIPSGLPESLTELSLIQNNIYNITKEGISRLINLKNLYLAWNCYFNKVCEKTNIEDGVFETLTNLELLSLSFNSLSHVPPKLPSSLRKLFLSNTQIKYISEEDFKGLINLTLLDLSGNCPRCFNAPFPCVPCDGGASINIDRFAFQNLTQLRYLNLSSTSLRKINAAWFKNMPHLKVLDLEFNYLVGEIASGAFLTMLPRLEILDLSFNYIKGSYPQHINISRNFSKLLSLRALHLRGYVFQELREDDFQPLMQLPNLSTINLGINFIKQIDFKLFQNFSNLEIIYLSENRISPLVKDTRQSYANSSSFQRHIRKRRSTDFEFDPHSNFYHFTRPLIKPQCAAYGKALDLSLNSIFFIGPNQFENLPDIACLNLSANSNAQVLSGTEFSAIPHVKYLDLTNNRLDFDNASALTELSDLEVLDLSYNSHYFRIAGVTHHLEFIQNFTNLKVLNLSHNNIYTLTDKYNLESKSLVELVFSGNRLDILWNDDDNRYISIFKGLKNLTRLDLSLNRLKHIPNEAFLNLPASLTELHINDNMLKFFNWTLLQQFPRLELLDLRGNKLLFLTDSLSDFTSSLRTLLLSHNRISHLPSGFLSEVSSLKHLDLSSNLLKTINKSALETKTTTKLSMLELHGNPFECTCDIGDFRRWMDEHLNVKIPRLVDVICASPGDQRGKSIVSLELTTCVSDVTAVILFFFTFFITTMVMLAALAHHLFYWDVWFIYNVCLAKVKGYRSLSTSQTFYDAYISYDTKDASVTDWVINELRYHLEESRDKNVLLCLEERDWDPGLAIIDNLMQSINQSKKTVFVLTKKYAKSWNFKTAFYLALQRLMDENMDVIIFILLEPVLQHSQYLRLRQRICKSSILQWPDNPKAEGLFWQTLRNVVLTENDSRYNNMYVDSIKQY
In words: TLR8 inhibition reporter assay (HEK-Blue cells, SEAP reporter, R848 stimulation). Conditions: HEK-Blue cells overexpressing human TLR8, SEAP reporter, R848 15.9 μM. A digest of the protocol: as §1

As to `Cc1cc(-c2[nH]nc(C(=O)NC3CCN(CC4CC4)CC3)c2C(C)C)cn2ncnc12` [Example 73], the half-inhibitory concentration (IC50) in test [1] was found to be 4280 nM; in test [2], 0.96 nM; in test [3] it was 12.7 nM.
On the same counts, the results for `Cc1cc(-c2[nH]nc(C(=O)NC3CCN(CC(C)(C)C)CC3)c2C(C)C)cn2ncnc12` [Example 74] are 1910 nM, 0.71 nM and 3.44 nM.
The matching figures for `Cc1cc(-c2[nH]nc(C(=O)NC3CCN(CCC(C)(C)C)CC3)c2C(C)C)cn2ncnc12` [Example 75]: 3390 nM, 0.89 nM and 7.55 nM.
The matching figures for `Cc1cc(-c2[nH]nc(C(=O)NC3CCN(CCC(C)C)CC3)c2C(C)C)cn2ncnc12` [Example 76]: 1450 nM, 0.9 nM and 2.62 nM.
Consider `Cc1cc(-c2[nH]nc(C(=O)NC3CCN(CC4CCOCC4)CC3)c2C(C)C)cn2ncnc12` [Example 77], for which the results for the concentration for half-maximal inhibition (IC50) in test [1], in test [2] and in test [3] were 3270 nM, 2.03 nM and 21.5 nM, respectively.
In the case of `Cc1noc(C)c1CN1CCC(NC(=O)c2n[nH]c(-c3cc(C)c4ncnn4c3)c2C(C)C)CC1` [Example 78], the values for the 50% inhibitory concentration (IC50) in test [1], in test [2] and in test [3] were 2870 nM, 0.59 nM and 1.64 nM, respectively.
Take `CCC(CC)CN1CCC(NC(=O)c2n[nH]c(-c3cc(C)c4ncnn4c3)c2C(C)C)CC1` [Example 79]: the IC50 in test [1] is 4120 nM; in test [2], 2.29 nM; in test [3] it was 9.23 nM.
On the same counts, the results for `Cc1cc(-c2[nH]nc(C(=O)N[C@H]3CC[C@H](N(C)C)CC3)c2C(C)C)cn2ncnc12` [Example 82] are more than 50000 nM, 4.69 nM and 43.6 nM.
The matching figures for `Cc1cc(-c2[nH]nc(C(=O)NC3CCN(CCN(C)C)CC3)c2C(C)C)cn2ncnc12` [Example 83]: more than 50000 nM, 6.33 nM and 238 nM.
In the case of `Cc1cc(-c2[nH]nc(C(=O)N[C@H]3CC[C@@H](N(C)C)CC3)c2C(C)C)cn2ncnc12` [Example 84], the IC50 is 9110 nM in test [1], 0.9 nM in test [2] and 0.84 nM in test [3].
On to `Cc1cc(-c2[nH]nc(C(=O)N[C@H]3CC[C@@H](NC(C)C)CC3)c2C(C)C)cn2ncnc12` [Example 85], for which the 50% inhibitory concentration (IC50) in test [1] was determined as 6910 nM; in test [2], 2.66 nM; in test [3], 17.5 nM.
On the same counts, the results for `Cc1cc(-c2[nH]nc(C(=O)N[C@H]3CC[C@@H](NC4COC4)CC3)c2C(C)C)cn2ncnc12` [Example 86] are 6420 nM, 1.34 nM and 0.7 nM.
The matching figures for `Cc1cc(-c2[nH]nc(C(=O)N[C@H]3CC[C@@H](NCC4CCOC4)CC3)c2C(C)C)cn2ncnc12` (stereo partly drawn) [Example 87]: 7790 nM, 1.73 nM and 11.8 nM.
On the same counts, the results for `Cc1cc(-c2[nH]nc(C(=O)N[C@H]3CC[C@@H](NCCCC(F)(F)F)CC3)c2C(C)C)cn2ncnc12` [Example 88] are 4450 nM, 0.81 nM and 1.84 nM.
Consider `Cc1cc(-c2[nH]nc(C(=O)N[C@H]3CC[C@@H](NCC(C)(C)C)CC3)c2C(C)C)cn2ncnc12` [Example 89], for which the IC50 in test [1] stood at 4100 nM; in test [2] it was 1.48 nM; in test [3], 18.9 nM.
On the same counts, the results for `Cc1cc(-c2[nH]nc(C(=O)N[C@H]3CC[C@@H](N(CCC(C)(C)C)CCC(C)(C)C)CC3)c2C(C)C)cn2ncnc12` [Example 90] are 11100 nM, 0.8 nM and 1.13 nM.
The matching figures for `Cc1cc(-c2[nH]nc(C(=O)N[C@H]3CC[C@@H](N(CCC(C)C)CCC(C)C)CC3)c2C(C)C)cn2ncnc12` [Example 91]: 6720 nM, 4.01 nM and 8.12 nM.
On the same counts, the results for `Cc1cc(-c2[nH]nc(C(=O)N[C@H]3CC[C@@H](NCC4CCOCC4)CC3)c2C(C)C)cn2ncnc12` [Example 92] are 4110 nM, 0.31 nM and 2.34 nM.
Take `Cc1noc(C)c1CN[C@H]1CC[C@@H](NC(=O)c2n[nH]c(-c3cc(C)c4ncnn4c3)c2C(C)C)CC1` [Example 93]: the values for the IC50 in test [1], in test [2] and in test [3] were 12000 nM, 1.89 nM and 15.6 nM, respectively.
On the same counts, the results for `Cc1cc(-c2[nH]nc(C(=O)N[C@H]3CC[C@@H](NCC4CCCC4)CC3)c2C(C)C)cn2ncnc12` [Example 94] are 40700 nM, 1.94 nM and 3.14 nM.
On the same counts, the results for `Cc1cc(-c2[nH]nc(C(=O)N[C@H]3CC[C@@H](NCc4cccnc4)CC3)c2C(C)C)cn2ncnc12` [Example 95] are 43200 nM, 11.7 nM and 23.8 nM.
